Data taken from the NIST ThermoML archive (doi:10.1016/j.fluid.2014.04.018).
Where “and” joins values, the source holds several entries; their conditions need not be identical. Equal entries are not always repeated.

Conditions: Liquid, Vibrating tube method

CCCCC(CC)COC(=O)CCCCC(=O)OCC(CC)CCCC (stereo not given) [bis(2-ethylhexyl) adipate]
Conditions | mass density
293.15 K, 100 kPa | 925.4 kg/m3
293.15 K, 2510 kPa | 926.9 kg/m3
293.15 K, 5000 kPa | 928.4 kg/m3 and 928.3 kg/m3
293.15 K, 5010 kPa | 928.4 kg/m3
293.15 K, 7550 kPa | 929.9 kg/m3
293.15 K, 10010 kPa | 931.3 kg/m3
293.15 K, 10020 kPa | 931.3 kg/m3
293.15 K, 15040 kPa | 934.2 kg/m3
293.15 K, 20020 kPa | 937 kg/m3
293.15 K, 30030 kPa | 942.4 kg/m3
293.15 K, 40010 kPa | 947.4 kg/m3
293.15 K, 40020 kPa | 947.4 kg/m3
293.15 K, 50020 kPa | 952.3 kg/m3
293.15 K, 68030 kPa | 960.4 kg/m3 and 960.3 kg/m3
313.15 K, 100 kPa | 910.3 kg/m3
313.15 K, 2530 kPa | 911.9 kg/m3
313.15 K, 2540 kPa | 911.9 kg/m3
313.15 K, 5020 kPa | 913.5 kg/m3
313.15 K, 7540 kPa | 915.2 kg/m3
313.15 K, 10010 kPa | 916.7 kg/m3
313.15 K, 15010 kPa | 919.8 kg/m3
313.15 K, 20000 kPa | 922.8 kg/m3
313.15 K, 30030 kPa | 928.7 kg/m3
313.15 K, 40020 kPa | 934.1 kg/m3
313.15 K, 50010 kPa | 939.3 kg/m3
313.15 K, 68050 kPa | 947.9 kg/m3
333.15 K, 100 kPa | 895.3 kg/m3
333.15 K, 2500 kPa | 897.1 kg/m3
333.15 K, 5000 kPa | 898.8 kg/m3
333.15 K, 7480 kPa | 900.6 kg/m3
333.15 K, 9990 kPa | 902.3 kg/m3
333.15 K, 14990 kPa | 905.7 kg/m3
333.15 K, 19970 kPa | 908.9 kg/m3
333.15 K, 30010 kPa | 915.2 kg/m3
333.15 K, 39990 kPa | 921 kg/m3
333.15 K, 50020 kPa | 926.6 kg/m3
333.15 K, 68010 kPa | 935.8 kg/m3
353.15 K, 100 kPa | 880.4 kg/m3
353.15 K, 2500 kPa | 882.3 kg/m3
353.15 K, 2510 kPa | 882.3 kg/m3
353.15 K, 5000 kPa | 884.2 kg/m3
353.15 K, 7510 kPa | 886.1 kg/m3
353.15 K, 10000 kPa | 888 kg/m3
353.15 K, 15010 kPa | 891.7 kg/m3
353.15 K, 20020 kPa | 895.2 kg/m3
353.15 K, 30030 kPa | 902 kg/m3
353.15 K, 40020 kPa | 908.2 kg/m3
353.15 K, 50010 kPa | 914.1 kg/m3
353.15 K, 68010 kPa | 923.9 kg/m3
373.15 K, 100 kPa | 865.4 kg/m3
373.15 K, 2510 kPa | 867.5 kg/m3
373.15 K, 5020 kPa | 869.7 kg/m3
373.15 K, 7510 kPa | 871.7 kg/m3
373.15 K, 10010 kPa | 873.8 kg/m3
373.15 K, 14990 kPa | 877.8 kg/m3
373.15 K, 20000 kPa | 881.6 kg/m3
373.15 K, 30010 kPa | 888.9 kg/m3
373.15 K, 40000 kPa | 895.6 kg/m3
373.15 K, 50010 kPa | 901.9 kg/m3
373.15 K, 68000 kPa | 912.3 kg/m3

CCCCOC(=O)CCCCC(=O)OCCCC [dibutyl hexanedioate]
Conditions | mass density [kg/m3]
293.15 K, 100 kPa | 960.6
293.15 K, 2510 kPa | 962.2
293.15 K, 4990 kPa | 963.7
293.15 K, 5000 kPa | 963.7
293.15 K, 7510 kPa | 965.3
293.15 K, 9990 kPa | 966.9
293.15 K, 10000 kPa | 966.9
293.15 K, 15010 kPa | 969.9
293.15 K, 20000 kPa | 972.9
293.15 K, 29990 kPa | 978.6
293.15 K, 39800 kPa | 983.9
293.15 K, 39860 kPa | 983.8
293.15 K, 50020 kPa | 989.1
293.15 K, 68080 kPa | 997.3
293.15 K, 68090 kPa | 997.7
313.15 K, 100 kPa | 943.7
313.15 K, 2500 kPa | 945.4
313.15 K, 5020 kPa | 947.2
313.15 K, 7510 kPa | 948.9
313.15 K, 9990 kPa | 950.5
313.15 K, 15000 kPa | 953.9
313.15 K, 20000 kPa | 957.1
313.15 K, 30010 kPa | 963.3
313.15 K, 39810 kPa | 969
313.15 K, 50000 kPa | 974.6
313.15 K, 67990 kPa | 983.8
333.15 K, 100 kPa | 926.8
333.15 K, 2500 kPa | 928.7
333.15 K, 5010 kPa | 930.6
333.15 K, 7520 kPa | 932.5
333.15 K, 10010 kPa | 934.3
333.15 K, 15040 kPa | 938
333.15 K, 20000 kPa | 941.4
333.15 K, 30030 kPa | 948.2
333.15 K, 39800 kPa | 954.3
333.15 K, 50030 kPa | 960.4
333.15 K, 68030 kPa | 970.2
353.15 K, 100 kPa | 909.9
353.15 K, 2510 kPa | 912
353.15 K, 5000 kPa | 914.1
353.15 K, 7530 kPa | 916.2
353.15 K, 10010 kPa | 918.2
353.15 K, 15000 kPa | 922.2
353.15 K, 20000 kPa | 926
353.15 K, 30010 kPa | 933.3
353.15 K, 39840 kPa | 939.9
353.15 K, 49990 kPa | 946.4
353.15 K, 67990 kPa | 956.9
373.15 K, 100 kPa | 893
373.15 K, 2490 kPa | 895.3
373.15 K, 2500 kPa | 895.3
373.15 K, 5020 kPa | 897.6
373.15 K, 7510 kPa | 899.9
373.15 K, 10010 kPa | 902.1
373.15 K, 15010 kPa | 906.5
373.15 K, 19980 kPa | 910.6
373.15 K, 30010 kPa | 918.5
373.15 K, 39810 kPa | 925.7
373.15 K, 50000 kPa | 932.6
373.15 K, 68010 kPa | 943.8
